The results in this text go back to US12447172B2, “Use of the miR-27a-5p microRNA for treating Clostridium difficile-induced bowel inflammation” (priority 2018, dated 2025).

Data set [1] concerns miR-27a-5p expression in Caco-2 cells. The data set can be described thus: miR-27a-5p expression (qRT-PCR) in Caco-2 cells pretreated with NF-κB and MAPK pathway inhibitors, then incubated with FliC or C. difficile R20291. The settings on record: 20 μM added 1 h before FliC or strain R20291. Background: Quantitative PCR measures a nucleic acid by following its amplification.
Another data set deals with IκB-α (NF-κB pathway). The data set can be described thus: IκB-α Western blot of cecal lysates (NF-κB pathway activation). The settings on record: infected, mimic-treated mice, D2 post-infection. It counts as in vivo, C57BL/6 mice.
Data set [2] deals with C. difficile wild-type strain R20291 infection.
The test system is the same in data set [3]. The data set can be described thus: Clinical manifestations in the mouse model of CDI.
The subject of a further data set is C. difficile. The data set can be described thus: Bacterial count in cecal contents at D2 post-infection.
Setting [4] is: mice infected with WT R20291, mimic 3 x 50 μg IV, D1 post-infection.
Setting [5] is: mice infected with WT R20291, mimic 3 x 50 μg IV, D2 post-infection.
[6] abbreviates: uninfected mice (negative control) treated with mimic, D1.
Setting [7] is: uninfected mice (negative control) treated with mimic, D2.

For `Cc1ccc2nc(NCCN)c3ncc(C)n3c2c1` [BMS 345541], the “inhibition of miR-27a-5p expression” value in data set [1] is on record as “roughly 40 fold”.

Consider “miR-27a-mimic: Synthetic double-stranded RNA mimic by Riboxx (SEQ ID NO: 2/3, M-00303-0200 CONmiR Mimic in vivo), given IV mixed with in vivo-jetPEI (chain 1 AGGGCUUAGCUGCUUGUGACCCCC; chain 2 GGGGGUCACAAGCAGCUAAGCCCU; formulated with in vivo-jetPEI, further chemistry not given here)”, for which the “IκB-α in the cecum (NF-κB pathway activation)” value in the data set on IκB-α (NF-κB pathway) is recorded as “no activation of IκB-α was detected”. Also, the “mice with a cecum with little or no evidence of inflammation and normal, mucus-free cecal contents” value in data set [2] (infected, mimic-treated group, D2 post-infection) is 6 of 10. In addition, the “inflammatory appearance of the cecum” value in data set [2] (infected, mimic-treated mice, D2 post-infection, macroscopic) was “largely attenuated”. The “inflammation score of the 3 treated mice that showed diarrhea at D2” value in data set [2] (infected, mimic-treated, D2 post-infection) is “high inflammation score comparable to infected and untreated mice”. This compound registered an efficacy rate in data set [2] (mouse model of infection, 3 of 10 treated mice affected) of 70%. For the same compound, in data set [2] (mouse, in vivo), the “histological inflammation score (Table 3)” value is recorded as 0. In data set [2] (the infected, mimic-treated mice with little or no inflammation, D2, untreated infected mice 6 to 9), the “histologic score of inflammation (Table 3)” value is on record as “less than 6”. Moreover, the “Bristly hair D1 (animals affected/group)” value in data set [3] (setting [4]) is 0/10; in data set [3] (setting [6]), 0/9. The “Reduced activity D1 (animals affected/group)” value in data set [3] (setting [4]) is 0/10; in data set [3] (setting [6]), 0/9. Also, the results for the “Bristly hair D2 (animals affected/group)” value in data set [3] (setting [5]) and in data set [3] (setting [7]) were 0/10 and 0/9, respectively. Besides, the “Reduced activity D2 (animals affected/group)” value in data set [3] (setting [5]) was 1/10; in data set [3] (setting [7]) it was 0/9. Moreover, the “Diarrhea D1 (animals affected/group)” value in data set [3] (mice infected with WT R20291, mimic/in vivo-jetPEI 3 x 50 μg IV, D1 post-infection) is on record as 0/10; in data set [3] (uninfected mice (negative control) treated with mimic 3 x 50 μg IV, D1) it was 0/9. For the same compound, the “Diarrhea D2 (animals affected/group)” value was 3/10 in data set [3] (mice infected with WT R20291, mimic/in vivo-jetPEI 3 x 50 μg IV, D2 post-infection); 3 out of 10 in data set [3] (mice infected with WT R20291, mimic/in vivo-jetPEI 3 x 50 μg IV, D2 post-infection, listed as miR27-a-mimic); 0/9 in data set [3] (uninfected mice (negative control) treated with mimic 3 x 50 μg IV, D2). Besides, the “clinical and pathological manifestations caused by the bacteria” value in data set [3] (mouse model of CDI, mimic administered intravenously) was “significantly reduces”. Besides, in the data set on C. difficile (WT-infected, mimic-treated mice), the “bacterial count in the cecal contents” value is given as 3.7 × 10^9 CFU/g. In the data set on C. difficile (cecal contents), the “rate of intestinal colonization compared with untreated WT-infected mice” value is given as “quite equivalent”.
